System: MCF-10A cells
Assay: 1H NMR metabolomics of polar (aqueous) cell extracts
Format: cell-based, human
Conditions: for number of metabolites altered: 48 h
Protocol: MDA-MB-231 and MCF-10A cells were seeded in 10-cm-diameter Petri dishes at a density of 6 × 10^5 cells/mL (10 mL per dish) and cultured for 24 h at 37 °C. […] Vehicle solvent control cells received DMSO (0.10% v/v). Samples were collected immediately after 48 h incubation or, to assess cellular recovery, medium was replaced with fresh growth medium (without TAs), and cells were incubated for additional 24 h before collection (48 + 24 h samples). Four independent assays were performed.
After incubation, culture medium was collected and centrifuged (1000× g, 5 min) and the supernatant stored at −80 °C until analysis. Culture medium without cells was placed under the same conditions and collected. Cell extraction was performed as described by Carrola et al.. Briefly, cells were washed four times with PBS and extracted with a mixture of methanol:chloroform:water (1:1:0.7). The resulting polar and organic phases were collected and then dried under vacuum or under a stream of nitrogen gas, respectively. All samples were stored at −80 °C and, at the time of analysis, dried polar extracts were reconstituted in 600 µL of deuterated phosphate buffer (100 mM, pH 7.4) containing 0.1 mM TSP-d4, while organic extracts were reconstituted in deuterated chloroform containing 0.03% TMS. Regarding medium samples, 540 μL were mixed with 60 μL of D2O containing 0.25% TSP-d4. Prior to analysis, 550 μL of each sample were transferred to 5 mm NMR tubes.
^1H NMR spectra of all samples were acquired on a Bruker Avance III HD 500 NMR spectrometer (University of Aveiro, Portuguese NMR Network) operating at 500.13 MHz for ^1H observation equipped with a 5 mm TXI probe. Standard 1D spectra (Bruker pulse programs ‘noesypr1d’, with water suppression, for medium samples and aqueous extracts, and ‘zg’ for organic extracts) were recorded with a 7002.8 Hz spectral width, 32 k data points, a 2 s relaxation delay and 512 scans. Spectral processing comprised exponential multiplication with 0.3 Hz line broadening, zero filling to 64 k data points, manual phasing, baseline correction, and chemical shift calibration to the TSP or TMS signal at 0 ppm. 2D ^1H-^1H total correlation (TOCSY) spectra, ^1H-^13C heteronuclear single quantum correlation (HSQC) spectra and J-resolved spectra were also registered for selected samples to assist spectral assignment. Metabolites were identified with the support of 2D spectra and the spectral reference databases BBIOREFCODE-2-0-0 (Bruker Biospin, Rheinstetten, Germany) and HMDB [28]. Selected signals were then integrated using the AmixViewer software […] (version 3.9.14, Bruker BioSpin, Rheinstetten, Germany) and normalized by the total spectral area. The magnitude of each metabolite change was assessed through the percentage of variation (and its respective error) in exposed samples relatively to controls, and through the effect size (ES) adjusted for small sample numbers (and respective standard error). Metabolite variations with absolute ES greater than 0.8 were expressed in a heatmap, colored as a function of the percentage of variation, employing the R statistical software.

## C[C@H]1[C@H](C)CC[C@]2(C(=O)O)CC[C@]3(C)C(=CC[C@@H]4[C@@]5(C)CC[C@H](O)C(C)(C)[C@@H]5CC[C@]43C)[C@H]12 [UA, ursolic acid]
UA 10µM, 48h
  1-MethyInicotinamide %var: 38.46%
  3-Hydroxyisobutyrate %var: -23.71%
  ATP %var: 41.52%
  Acetate %var: 0%
  Ala %var: 44.32%
  Asp %var: -38.30%
  Choline %var: 31.99%
  Citrate %var: -36.91%
  Cr %var: -16.76%
  Dimethylamine %var: -53.26%
  Formate %var: 0%
  Fumarate %var: 0%
  GPC %var: 108.51%
  GSH %var: -30.60%
  Gln %var: 0%
  Glu %var: -21.17%
  Glucose %var: -71.26%
  Glucose-1-phosphate %var: -75.94%
  Gly %var: 40.31%
  His %var: 0%
  Ile %var: 211.80%
  Lactate %var: 0%
  Leu %var: 389.84%
  NADH %var: 34.09%
  PC %var: -26.30%
  PCr %var: 34.32%
  Phe %var: 22.52%
  Pro %var: 87.39%
  Tyr %var: 0%
  UDP-GalNAc %var: 62.26%
  UDP-GlcNAc %var: 60.69%
  UDP-Glucose %var: -19.78%
  Val %var: 151.36%
  myo -Lno %var: -13.14%
UA 10µM, 48h+24h
  1-MethyInicotinamide %var: 22.91%
  3-Hydroxyisobutyrate %var: -22.77%
  ATP %var: 0%
  Acetate %var: 0%
  Ala %var: 0%
  Asp %var: -26.58%
  Choline %var: 0%
  Citrate %var: -18.09%
  Cr %var: 0%
  Dimethylamine %var: -15.34%
  Formate %var: 0%
  Fumarate %var: -22.45%
  GPC %var: -32.45%
  GSH %var: -27.29%
  Gln %var: 16.14%
  Glu %var: 0%
  Glucose %var: -31.96%
  Glucose-1-phosphate %var: 0%
  Gly %var: 24.70%
  His %var: 0%
  Ile %var: 58.71%
  Lactate %var: 0%
  Leu %var: 82.57%
  NADH %var: 20.35%
  PC %var: -38.35%
  PCr %var: 24.82%
  Phe %var: 16.59%
  Pro %var: 49.66%
  Tyr %var: 13.28%
  UDP-GalNAc %var: 0%
  UDP-GlcNAc %var: 0%
  UDP-Glucose %var: 0%
  Val %var: 47.98%
  myo -Lno %var: 0%
UA 20µM, 48h
  1-MethyInicotinamide %var: 83.24%
  3-Hydroxyisobutyrate %var: -30.93%
  ATP %var: 53.13%
  Acetate %var: 0%
  Ala %var: 0%
  Asp %var: -46.10%
  Choline %var: 30.58%
  Citrate %var: -38.52%
  Cr %var: 0%
  Dimethylamine %var: -41.93%
  Formate %var: 0%
  Fumarate %var: 0%
  GPC %var: 160.13%
  GSH %var: -21.64%
  Gln %var: 0%
  Glu %var: -23.01%
  Glucose %var: -85.89%
  Glucose-1-phosphate %var: -78.61%
  Gly %var: 38.29%
  His %var: 0%
  Ile %var: 156.93%
  Lactate %var: 0%
  Leu %var: 297.70%
  NADH %var: 46.21%
  PCr %var: 0%
  Phe %var: 0%
  Pro %var: 69.18%
  Tyr %var: 0%
  UDP-GalNAc %var: 68.87%
  UDP-GlcNAc %var: 61.45%
  UDP-Glucose %var: -32.23%
  Val %var: 101.22%
  myo -Lno %var: 0%
UA 20µM, 48h+24h
  1-MethyInicotinamide %var: 50.44%
  3-Hydroxyisobutyrate %var: -30.69%
  ATP %var: 0%
  Acetate %var: 10.61%
  Ala %var: 0%
  Asp %var: -37.26%
  Choline %var: 0%
  Citrate %var: -32.19%
  Cr %var: 28.29%
  Dimethylamine %var: -23.93%
  Formate %var: 0%
  Fumarate %var: -34.69%
  GPC %var: 0%
  GSH %var: -26.66%
  Gln %var: 25.50%
  Glu %var: -11.32%
  Glucose %var: -67.35%
  Glucose-1-phosphate %var: -40.85%
  Gly %var: 31.50%
  His %var: 0%
  Ile %var: 94.71%
  Lactate %var: 0%
  Leu %var: 130.47%
  NADH %var: 55.81%
  PC %var: -38.16%
  PCr %var: 0%
  Phe %var: 27.29%
  Pro %var: 78.81%
  Tyr %var: 21.23%
  UDP-GalNAc %var: 0%
  UDP-GlcNAc %var: 0%
  UDP-Glucose %var: -20.07%
  Val %var: 70.45%
  myo -Lno %var: 0%
UA high concentration
  number of metabolites altered: 22
UA low concentration
  number of metabolites altered: 27

## C=C(C)[C@@H]1CC[C@]2(C(=O)O)CC[C@]3(C)[C@H](CC[C@@H]4[C@@]5(C)CC[C@H](O)C(C)(C)[C@@H]5CC[C@]43C)[C@@H]12 [BA, betulinic acid]
BA 5µM, 48h
  1-MethyInicotinamide %var: 152.75%
  3-Hydroxyisobutyrate %var: -48.45%
  ATP %var: 0%
  Acetate %var: 33.50%
  Ala %var: -39.74%
  Asp %var: -48.70%
  Choline %var: 46.22%
  Citrate %var: -74.68%
  Cr %var: 59.47%
  Dimethylamine %var: -40.51%
  Formate %var: 91.07%
  Fumarate %var: -80.00%
  GPC %var: 307.70%
  GSH %var: -31.85%
  Gln %var: 0%
  Glu %var: -75.91%
  Glucose %var: -56.45%
  Glucose-1-phosphate %var: -93.58%
  Gly %var: 41.70%
  His %var: -25.16%
  Ile %var: 218.16%
  Lactate %var: 161.49%
  Leu %var: 418.85%
  NADH %var: 62.88%
  PC %var: -78.42%
  PCr %var: 0%
  Phe %var: 0%
  Pro %var: 80.04%
  Tyr %var: -16.91%
  UDP-GalNAc %var: 123.58%
  UDP-GlcNAc %var: 151.53%
  UDP-Glucose %var: -75.09%
  Val %var: 138.35%
  myo -Lno %var: -19.23%
  number of polar metabolites with altered intracellular levels: 31
BA 5µM, 48h+24h
  1-MethyInicotinamide %var: 56.61%
  3-Hydroxyisobutyrate %var: -48.51%
  ATP %var: 0%
  Acetate %var: 63.78%
  Ala %var: -65.18%
  Asp %var: -24.38%
  Choline %var: 0%
  Citrate %var: -61.27%
  Cr %var: 0%
  Dimethylamine %var: 0%
  Formate %var: 287.80%
  Fumarate %var: 0%
  GPC %var: 188.81%
  GSH %var: -24.73%
  Gln %var: 0%
  Glu %var: -47.27%
  Glucose %var: 0%
  Glucose-1-phosphate %var: -92.25%
  Gly %var: 0%
  His %var: -44.80%
  Ile %var: 36.26%
  Lactate %var: 0%
  Leu %var: 75.04%
  NADH %var: 0%
  PC %var: 0%
  PCr %var: 0%
  Phe %var: -24.03%
  Pro %var: 0%
  Tyr %var: -36.13%
  UDP-GalNAc %var: 0%
  UDP-GlcNAc %var: 0%
  UDP-Glucose %var: -66.89%
  Val %var: 10.36%
  myo -Lno %var: -52.77%
